Each structure is given as a SMILES string.

Tested on in the first data set: not listed separately
The experiment in a line: Metabolic stability in rat hepatocytes assessed as half life. In kind it is ADME, cell-based, Hepatocyte.
As a reminder, the half-life is the time in which the quantity being followed falls by half. As to `O=c1oc2ccccc2c(O)c1C1CC(c2ccc(OCc3ccc(C(F)(F)F)cc3)cc2)Cc2ccccc21` (stereo not given), the half-life is 215 days.

Turning to `O=c1oc2ccccc2c(O)c1C1CC(c2ccc(-c3ccccc3)cc2)Cc2ccccc21` (stereo not given), the half-life was 118 days.

Regarding `O=c1oc2ccccc2c(O)c1C(CC(O)c1ccc(-c2ccc(Br)cc2)cc1)c1ccccc1` (stereo not given) [BROMODIOLONE], the half-life is 170 days.

For another data set, the target named is Vitamin K epoxide reductase complex subunit 1 (Homo sapiens, UniProt Q9BQB6). The experiment in a line: Inhibition of recombinant human wild-type VKORC1 expressed in Pichia pastoris membrane incubated for 30 mins in presence of presence of dithiothreitol by LC-APCI/MS/MS analysis. It counts as cell membranes.
Sequence of Vitamin K epoxide reductase complex subunit 1 (Q9BQB6 whole entry, one chain of several): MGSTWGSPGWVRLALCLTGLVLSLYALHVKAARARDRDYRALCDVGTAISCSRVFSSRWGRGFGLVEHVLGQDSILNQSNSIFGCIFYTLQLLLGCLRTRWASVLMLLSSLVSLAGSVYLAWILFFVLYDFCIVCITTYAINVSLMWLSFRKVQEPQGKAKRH
What is called IC50 is the concentration that gives 50% inhibition. As for `COc1cccc(Cc2c(O)c3ccccc3oc2=O)c1`, the IC50 was found to be 5.53 µM.

Regarding `O=c1oc2ccccc2c(O)c1Cc1ccc2c(c1)OCO2`, the IC50 turned out to be 0.873 µM.

With `CC(c1ccccc1)c1c(O)c2ccccc2oc1=O` (stereo not given), the IC50 is 1.53 µM.

As for `O=c1oc2ccccc2c(O)c1Cc1cccnc1`, the IC50 amounted to 23.9 µM.

Regarding `O=c1oc2ccccc2c(O)c1Cc1ccc(Br)cc1`, the IC50 turned out to be 0.643 µM.

Take `CSc1ccc(Cc2c(O)c3ccccc3oc2=O)cc1`: the IC50 is 0.527 µM.

On to `COc1ccc(Cc2c(O)c3ccccc3oc2=O)cc1`, for which the IC50 was 2.72 µM.

On to `CC(C)=CCC/C(C)=C\CC/C(C)=C\Cc1c(O)c2ccccc2oc1=O`, for which the IC50 turned out to be 0.098 µM.

As to `O=c1oc2ccccc2c(O)c1Cc1ccc(C(F)(F)F)cc1`, the IC50 was determined as 0.498 µM.

On to `O=c1oc2ccccc2c(O)c1C1CC(c2ccc(-c3ccc(Br)cc3)cc2)Cc2ccccc21` (stereo not given) [BRODIFACOUM], for which the IC50 came to 0.15 µM.

On to `CC(C)=CCc1c(O)c2ccccc2oc1=O` [ISOPRENYLCOUMARIN], for which the IC50 is 79 µM.

`CC(O)CC(c1ccccc1)c1c(O)c2ccccc2oc1=O` (stereo not given) [WARFARIN ALCOHOL]: the IC50 was found to be 12.5 µM.

The values above are taken from ChEMBL document CHEMBL5365523, “Design of a structure-activity relationship model of vitamin K epoxide reductase (VKORC1) inhibitors combining chemical synthesis of new compounds, enzymatic assays and molecular modelling” (Bioorg Med Chem, 2023).
